Experimental data published in US20080299186A1, “COATINGS FOR APPLYING SUBSTANCES ONTO SUBSTRATE CARRIER” (Schering-Plough Healthcare Products, Inc., priority 2007, published 2008).
Structures can show the parent of a compound that is named as a salt.

Assay: Phenylephrine HCl stability study: chemical compatibility with film forming polymers and plasticizers, HPLC degradation products
Format: physicochemical
Protocol: Methods: Chemical compatibility of Phenylephrine HCl with various film forming polymers or polymer blends and plasticizers (Table 2) was conducted. […] Two additional formulations (C and F) were used as controls. Sample C contained Phenylephrine HCl dissolved in water without any additional cellulosic or non-cellulosic polymers. Sample F comprised phenylephrine HCl in the absence of water. Both controls were subjected to the same drying conditions as the other example films prior to analysis.
Aliquots from the bulk coating dispersion equivalent to approximately 10 unit doses of the active were poured into flat, 4-6″ plastic weight boats and allowed to dry overnight for approximately 15-16 hours at 40C under vacuum. The amount per film equivalent to 10 unit doses was chosen for achieving reproducible and reliable analytical results for the Phenylephrine HCl degradants. […] These dried film samples were then stored at 50C in closed amber jars for 14 days. Each film was then analyzed by HPLC for the presence of degradation products. Separation of Phenylephrine HCl degradation products was accomplished on an HPLC using a Prontosil EPS C18, 100×4.6 mm (3 μparticle size) column manufactured by Bischoff Chromatography and using a gradient test method. Detection was by UV at 215 nm. The column was thermostated at 25° C. and an injection volume of 10 μL of sample solution was used. […]

In the case of `CNC[C@H](O)c1cccc(O)c1` [C, Phenylephrine HCl], the “residual water after drying” value (after drying of the film sample) is reported as 10-15%.

In the case of `CNC[C@H](O)c1cccc(O)c1` [F, Phenylephrine HCl], the “total PE degradation, result in words (compared with controls)” value (stored at 50C in closed amber jars for 14 days) is reported as “no appreciable degradation occurred”.
